{
  "source": "patent US10323022B2",
  "about": "“Pyrrolidinyl urea, pyrrolidinyl thiourea and pyrrolidinyl guanidine compounds as TrkA kinase inhibitors” (Array BioPharma Inc., priority 2011, dated 2019)",
  "note": "Where a name gives a salt, the structure may show the parent alone.",
  "data": [
    {"target": "TrkA (Homo sapiens (Human), UniProt P04629)", "sequence (P04629 33-796)": "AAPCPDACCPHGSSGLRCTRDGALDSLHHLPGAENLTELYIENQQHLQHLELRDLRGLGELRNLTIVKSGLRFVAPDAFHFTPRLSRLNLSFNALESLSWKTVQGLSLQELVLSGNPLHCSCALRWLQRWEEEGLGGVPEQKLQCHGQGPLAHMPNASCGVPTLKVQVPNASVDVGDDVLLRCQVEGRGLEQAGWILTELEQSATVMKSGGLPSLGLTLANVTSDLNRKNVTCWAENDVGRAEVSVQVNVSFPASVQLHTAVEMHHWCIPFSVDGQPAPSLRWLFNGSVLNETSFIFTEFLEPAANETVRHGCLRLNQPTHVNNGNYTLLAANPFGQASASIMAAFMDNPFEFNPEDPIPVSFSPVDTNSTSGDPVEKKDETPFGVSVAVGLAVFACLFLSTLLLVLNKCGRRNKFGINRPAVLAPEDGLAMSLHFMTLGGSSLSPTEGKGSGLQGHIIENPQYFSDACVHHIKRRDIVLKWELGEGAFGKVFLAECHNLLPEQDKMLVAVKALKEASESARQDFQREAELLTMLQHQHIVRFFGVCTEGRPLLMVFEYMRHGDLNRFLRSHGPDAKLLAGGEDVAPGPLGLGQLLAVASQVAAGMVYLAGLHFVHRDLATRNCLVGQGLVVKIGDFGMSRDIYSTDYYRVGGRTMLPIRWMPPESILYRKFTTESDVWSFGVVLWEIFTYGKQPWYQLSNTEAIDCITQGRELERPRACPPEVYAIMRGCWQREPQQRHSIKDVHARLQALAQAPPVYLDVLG", "experiment": "TrkA Omnia Assay", "assay_type": "biochemical", "conditions": "averaged IC50; 20 nM enzyme, 500 μM ATP, 10 μM peptide substrate", "procedure,_shortened": "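Continuous fluorescent kinase read-out (ex 360 nm, em 485 nm) over 70 min, with initial rates fitted to 4- or 5-parameter logistic curves for IC50. Final conditions: 500 μM ATP, 10 μM Omnia Tyr Peptide #4, 20 nM TrkA, MOPS pH 7.5 buffer with MgCl2 and Triton X-100; enzyme and compound preincubated 10 min at ambient temperature.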", "units": {"IC50": "nM"}, "values": [
      {"smiles": "COCCc1nn(-c2ccccc2)c(NC(=O)N[C@@H]2CN(CCOC)C[C@H]2c2ccc(F)c(F)c2)c1C", "note": "[Example 134, 1-((3S,4R)-4-(3,4-difluorophenyl)-1-(2-methoxyethyl)pyrrolidin-3-yl)-3-(3-(2-methoxy-ethyl)-4-methyl-1-phenyl-1H-pyrazol-5-yl)urea]", "IC50": "< 100"},
      {"smiles": "CCOc1nn(-c2ccccc2)c(NC(=O)N[C@@H]2CN(CCOC)C[C@H]2c2ccc(F)c(F)c2)c1C", "note": "[Example 135, 1-((3S,4R)-4-(3,4-difluorophenyl)-1-(2-methoxyethyl)pyrrolidin-3-yl)-3-(3-ethoxy-4-methyl-1-phenyl-1H-pyrazol-5-yl)urea]", "IC50": "< 100"},
      {"smiles": "COCCN1C[C@@H](NC(=O)Nc2cc(OCc3ccccc3)nn2C)[C@H](c2ccc(F)c(F)c2)C1", "note": "[Example 136, 1-(3-(benzyloxy)-1-methyl-1H-pyrazol-5-yl)-3-((3S,4R)-4-(3,4-difluorophenyl)-1-(2-methoxyethyl)pyrrolidin-3-yl)urea]", "IC50": "100 to 1000"},
      {"smiles": "COCCOc1nn(-c2ccccc2)c(NC(=O)N[C@@H]2CN(CCOC)C[C@H]2c2ccc(F)c(F)c2)c1C", "note": "[Example 137, 1-((3S,4R)-4-(3,4-difluorophenyl)-1-(2-methoxyethyl)pyrrolidin-3-yl)-3-(3-(2-methoxy-ethoxy)-4-methyl-1-phenyl-1H-pyrazol-5-yl)urea]", "IC50": "< 100"},
      {"smiles": "CCOc1nn(-c2ccccc2)c(NC(=O)N[C@@H]2CN(CCOC)C[C@H]2c2cc(F)cc(F)c2)c1C", "note": "[Example 138, 1-((3S,4R)-4-(3,5-difluorophenyl)-1-(2-methoxyethyl)pyrrolidin-3-yl)-3-(3-ethoxy-4-methyl-1-phenyl-1H-pyrazol-5-yl)urea]", "IC50": "< 100"},
      {"smiles": "CCOc1nn(-c2ccccc2)c(NC(=O)N[C@@H]2CN(CCOC)C[C@H]2c2ccccc2)c1C", "note": "[Example 139]", "IC50": "< 100"},
      {"smiles": "COCCN1C[C@@H](NC(=O)Nc2c(C)c(OC)nn2-c2ccccc2)[C@H](c2ccc(F)c(F)c2)C1", "note": "[Example 140, 1-((3S,4R)-4-(3,4-difluorophenyl)-1-(2-methoxyethyl)pyrrolidin-3-yl)-3-(3-methoxy-4-methyl-1-phenyl-1H-pyrazol-5-yl)urea]", "IC50": "< 100"},
      {"smiles": "COCCN1C[C@@H](NC(=O)Nc2c(C)c(OCC#N)nn2-c2ccccc2)[C@H](c2ccc(F)c(F)c2)C1", "note": "[Example 141, 1-(3-(cyanomethoxy)-4-methyl-1-phenyl-1H-pyrazol-5-yl)-3-((3S,4R)-4-(3,4-difluorophenyl)-1-(2-methoxyethyl)pyrrolidin-3-yl)urea]", "IC50": "< 100"},
      {"smiles": "COCCN1C[C@@H](NC(=O)Nc2c(C)c(OCc3ccc(OC)cc3)nn2-c2ccccc2)[C@H](c2ccc(F)c(F)c2)C1", "note": "[Example 142, 1-((3S,4R)-4-(3,4-difluoro-phenyl)-1-(2-methoxyethyl)pyrrolidin-3-yl)-3-(3-(4-methoxybenzyloxy)-4-methyl-1-phenyl-1H-pyrazol-5-yl)urea]", "IC50": "< 100"},
      {"smiles": "COCCN1C[C@@H](NC(=O)Nc2c(C)c(OC)nn2-c2ccccc2)[C@H](c2ccc(F)cc2)C1", "note": "[Example 143, 1-((3S,4R)-4-(4-fluorophenyl)-1-(2-methoxyethyl)pyrrolidin-3-yl)-3-(3-methoxy-4-methyl-1-phenyl-1H-pyrazol-5-yl)urea]", "IC50": "< 100"},
      {"smiles": "COCCN1C[C@@H](NC(=O)Nc2c(C)c(OCCF)nn2-c2ccccc2)[C@H](c2ccc(F)c(F)c2)C1", "note": "[Example 144, 1-((3S,4R)-4-(3,4-difluorophenyl)-1-(2-methoxyethyl)pyrrolidin-3-yl)-3-(3-(2-fluoro-ethoxy)-4-methyl-1-phenyl-1H-pyrazol-5-yl)urea]", "IC50": "< 100"},
      {"smiles": "COCCN1C[C@@H](NC(=O)Nc2c(C)c(OCC(C)(C)O)nn2-c2ccccc2)[C@H](c2ccc(F)c(F)c2)C1", "note": "[Example 145, 1-((3S,4R)-4-(3,4-difluorophenyl)-1-(2-methoxyethyl)pyrrolidin-3-yl)-3-(3-(2-hydroxy-2-methylpropoxy)-4-methyl-1-phenyl-1H-pyrazol-5-yl)urea]", "IC50": "< 100"},
      {"smiles": "CCOc1cc(NC(=O)N[C@@H]2CN(CCOC)C[C@H]2c2ccc(F)c(F)c2)n(-c2ccccc2)n1", "note": "[Example 146, 1-((3S,4R)-4-(3,4-difluorophenyl)-1-(2-methoxyethyl)pyrrolidin-3-yl)-3-(3-ethoxy-1-phenyl-1H-pyrazol-5-yl)urea]", "IC50": "< 100"},
      {"smiles": "CCOc1nn(-c2ccccc2)c(NC(=O)N[C@@H]2CN(CCOC)C[C@H]2c2ccc(F)cc2)c1C", "note": "[Example 147, 1-(3-ethoxy-4-methyl-1-phenyl-1H-pyrazol-5-yl)-3-((3S,4R)-4-(4-fluorophenyl)-1-(2-methoxyethyl)pyrrolidin-3-yl)urea]", "IC50": "< 100"},
      {"smiles": "CCOc1nn(-c2ccccc2)c(NC(=O)N[C@@H]2CN(CCOC)C[C@H]2c2cccc(F)c2)c1C", "note": "[Example 148, 1-(3-ethoxy-4-methyl-1-phenyl-1H-pyrazol-5-yl)-3-((3S,4R)-4-(3-fluorophenyl)-1-(2-methoxyethyl)pyrrolidin-3-yl)urea]", "IC50": "< 100"},
      {"smiles": "COCCN1C[C@@H](NC(=O)Nc2c(C)c(OCCO)nn2-c2ccccc2)[C@H](c2cc(F)cc(F)c2)C1", "note": "[Example 149, 1-((3S,4R)-4-(3,5-difluorophenyl)-1-(2-methoxyethyl)pyrrolidin-3-yl)-3-(3-(2-hydroxy-ethoxy)-4-methyl-1-phenyl-1H-pyrazol-5-yl)urea]", "IC50": "< 100"},
      {"smiles": "COCCN1C[C@@H](NC(=O)Nc2c3c(nn2C2CCCCC2)CCC3)[C@H](c2ccc(F)c(F)c2)C1", "note": "[Example 150, 1-(2-cyclohexyl-2,4,5,6-tetrahydrocyclopenta [c]pyrazol-3-yl)-3-((3S,4R)-4-(3,4-difluorophenyl)-1-(2-methoxyethyl)pyrrolidin-3-yl)urea]", "IC50": "< 100"},
      {"smiles": "COCCN1C[C@@H](NC(=O)Nc2c3c(nn2-c2ccncc2)CCC3)[C@H](c2ccccc2)C1", "note": "[Example 151, 1-((3S,4R)-1-(2-methoxyethyl)-4-phenylpyrrolidin-3-yl)-3-(2-(pyridin-4-yl)-2,4,5,6-tetrahydrocyclopenta[c]pyrazol-3-yl)urea]", "IC50": "< 100"},
      {"smiles": "COCCN1C[C@@H](NC(=O)Nc2cc(-c3cnc(C)cn3)nn2C)[C@H](c2ccc(F)c(F)c2)C1", "note": "[Example 152, 1-((3S,4R)-4-(3,4-difluorophenyl)-1-(2-methoxyethyl)pyrrolidin-3-yl)-3-(1-methyl-3-(5-methylpyrazin-2-yl)-1H-pyrazol-5-yl)urea]", "IC50": "< 100"},
      {"smiles": "COCCN1C[C@@H](NC(=O)Nc2c(C)c(-c3cnc(C)cn3)nn2C)[C@H](c2ccc(F)c(F)c2)C1", "note": "[Example 153, 1-((3S,4R)-4-(3,4-difluorophenyl)-1-(2-methoxyethyl)pyrrolidin-3-yl)-3-(1,4-dimethyl-3-(5-methylpyrazin-2-yl)-1H-pyrazol-5-yl) urea]", "IC50": "100 to 1000"},
      {"smiles": "CCOC(=O)c1cnn(-c2ccccc2)c1NC(=O)N[C@@H]1CN(CCOC)C[C@H]1c1ccc(F)c(F)c1", "note": "[Example 154, ethyl 5-(3-((3S,4R)-4-(3,4-difluorophenyl)-1-(2-methoxyethyl)pyrrolidin-3-yl)ureido)-1-phenyl-1H-pyrazole-4-carboxylate]", "IC50": "1000 to 10000"},
      {"smiles": "COCCN1C[C@@H](NC(=O)Nc2cc(-c3cnccn3)nn2C)[C@H](c2ccc(F)c(F)c2)C1", "note": "[Example 155, 1-((3S,4R)-4-(3,4-difluorophenyl)-1-(2-methoxyethyl)pyrrolidin-3-yl)-3-(1-methyl-3-(pyrazin-2-yl)-1H-pyrazol-5-yl)urea]", "IC50": "< 100"},
      {"smiles": "COCCN1C[C@@H](NC(=O)Nc2c(-c3ccccc3)c(OC)nn2C)[C@H](c2ccc(F)c(F)c2)C1", "note": "[Example 156, 1-((3S,4R)-4-(3,4-difluorophenyl)-1-(2-methoxyethyl)pyrrolidin-3-yl)-3-(3-methoxy-1-methyl-4-phenyl-1H-pyrazol-5-yl)urea]", "IC50": "< 100"},
      {"smiles": "CCOc1nn(C)c(NC(=O)N[C@@H]2CN(CCOC)C[C@H]2c2ccc(F)c(F)c2)c1-c1ccccc1", "note": "[Example 157, 1-((3S,4R)-4-(3,4-difluorophenyl)-1-(2-methoxyethyl)pyrrolidin-3-yl)-3-(3-ethoxy-1-methyl-4-phenyl-1H-pyrazol-5-yl)urea]", "IC50": "< 100"},
      {"smiles": "COCCN1C[C@@H](NC(=O)Nc2c3c(nn2-c2ccccc2)CNC3)[C@H](c2ccccc2)C1", "note": "[Example 158, 1-((3S,4R)-1-(2-methoxyethyl)-4-phenylpyrrolidin-3-yl)-3-(2-phenyl-2,4,5,6-tetrahydropyrrolo[3,4-c]pyrazol-3-yl)urea dihydrochloride]", "IC50": "1000 to 10000"},
      {"smiles": "COCCN1C[C@@H](NC(=O)Nc2c3c(nn2-c2ccccc2)CN(C(C)=O)C3)[C@H](c2ccccc2)C1", "note": "[Example 159, 1-(5-acetyl-2-phenyl-2,4,5,6-tetrahydropyrrolo[3,4-c]pyrazol-3-yl)-3-((3S,4R)-1-(2-methoxyethyl)-4-phenylpyrrolidin-3-yl)urea]", "IC50": "100 to 1000"},
      {"smiles": "COCCN1C[C@@H](NC(=O)Nc2c(CO)c(COC)nn2-c2ccccc2)[C@H](c2ccc(F)c(F)c2)C1", "note": "[Example 160, 1-((3S,4R)-4-(3,4-difluorophenyl)-1-(2-methoxyethyl)pyrrolidin-3-yl)-3-(4-(hydroxymethyl)-3-(methoxymethyl)-1-phenyl-1H-pyrazol-5-yl)urea]", "IC50": "100 to 1000"},
      {"smiles": "COCCN1C[C@@H](NC(=O)Nc2cc(-c3ccc(C(=O)O)cc3)nn2C)[C@H](c2ccc(F)c(F)c2)C1", "note": "[Example 161, 4-(5-(3-((3S,4R)-4-(3,4-difluorophenyl)-1-(2-methoxyethyl)pyrrolidin-3-yl)ureido)-1-methyl-1H-pyrazol-3-yl)benzoic acid]", "IC50": "< 100"},
      {"smiles": "COCCN1C[C@@H](NC(=O)Nc2cc(-c3ccc(C(N)=O)cc3)nn2C)[C@H](c2ccc(F)c(F)c2)C1", "note": "[Example 162, 4-(5-(3-((3S,4R)-4-(3,4-difluorophenyl)-1-(2-methoxyethyl)pyrrolidin-3-yl)ureido)-1-methyl-1H-pyrazol-3-yl)benzamide]", "IC50": "< 100"},
      {"smiles": "CNC(=O)c1ccc(-c2cc(NC(=O)N[C@@H]3CN(CCOC)C[C@H]3c3ccc(F)c(F)c3)n(C)n2)cc1", "note": "[Example 163, 4-(5-(3-((3S,4R)-4-(3,4-difluorophenyl)-1-(2-methoxyethyl)pyrrolidin-3-yl)ureido)-1-methyl-1H-pyrazol-3-yl)-N-methylbenzamide]", "IC50": "< 100"}
    ]}
  ]
}
